Assay results reported in patent publication US20090264473A1, “Novel Crystalline Forms of Antidiabetic Compounds” (priority 2006, published 2009).
Structures can show the parent of a compound that is named as a salt.

Legend:
[1] = bioavailability in laboratory studies in rats; assay type: in vivo
[2] = hygroscopicity (weight gain in humid environment); assay type: physicochemical
[3] = bioavailability in laboratory studies in dogs; assay type: in vivo
[4] = water solubility; assay type: physicochemical
[5] = stability of crystal form; assay type: physicochemical
[6] = bioavailability in animals; assay type: in vivo
[7] = chemical stability; assay type: physicochemical

SMILES | bioavailability [1] | weight gain when placed in humid environment ([2]; environment with up to 95% RH) | bioavailability [3] | water solubility ([4]; native pH) | water solubility ([4]; neutral pH) | stability with respect to retaining crystal form [5] | bioavailability [6] | hygroscopicity [2] | chemical stability [7] | chemical stability on storage ([7]; 8 months at 40° C. and 75% RH)
CCCc1nc(Oc2ccc(Cl)cc2)ccc1-c1noc2cc(Cl)c(O[C@@H](C)C(=O)O)cc12 [Crystalline Free Acid Anhydrate, (2S)-2-({6-chloro-3-[6-(4-chlorophenoxy)-2-propylpyridin-3-yl]-1,2-benzisoxazol-5-yl}oxy)propanoic acid] | good bioavailability | about 0.2 wt % | good bioavailability | very low water solubility | low water solubility | stable with respect to retaining their crystal form | good bioavailability | – | – | –
CCCc1nc(Oc2ccc(Cl)cc2)ccc1-c1noc2cc(Cl)c(O[C@@H](C)C(=O)O)cc12 [benzenesulfonate salt] | – | – | – | – | – | – | – | non-hygroscopic | chemically stable | remaining unchanged
